Where two headings read alike, the source gives them in different places.
Legend:
[1] = test system: patients with resistant hypertension; assay: PRECISION phase 3 trial: safety assessments; format: in vivo, human; conditions: for tolerability: 12.5 mg and 25 mg, up to 48 weeks; for treatment-emergent adverse events (TEAEs), patients: 4-week double-blind period, placebo 19.4%; for edema/fluid retention, patients: 4-week part 1, placebo 2.1%; for discontinuation from study treatment due to an adverse event: first 4 weeks double-blind, placebo 0.8%; for estimated plasma volume increase: placebo 0.51%
Experimental: A single, randomized study with three sequential treatment parts was designed. The study design addressed both the 4-week placebo-controlled efficacy of 12.5 and 25 mg aprocitentan (Part 1) and the durability of its effects in long-term active treatment with 25 mg aprocitentan for a further 32 weeks (Part 2) followed by a 12-week placebo-controlled withdrawal period with patients re-randomized to 25 mg or placebo (Part 3) (see for example Danaietash P et al; Identifying and treating resistant hypertension in PRECISION—a randomized long-term clinical trial with Aprocitentan. J Clin Hypertension 2022 (in press). Patients with uncontrolled BP (measured as unattended automated office BP) despite the use of three or more antihypertensive medications for at least 1 year were screened. They were switched to a single-tablet triple fixed combination antihypertensive therapy for at least 4 weeks before entering a single-blind placebo run-in period. The 4-week placebo run-in period further excluded placebo responders. The randomization period consisted of 3 sequential parts: • 1) a 4-week double-blind part with aprocitentan 12.5 mg, 25 mg, or placebo (1:1:1 ratio); • 2) a 32-week single-blind part with aprocitentan 25 mg; and • 3) a 12-week randomized withdrawal part with aprocitentan 25 mg or placebo (1:1 ratio).
• Part 1: Double-blind, randomized parallel-group and placebo-controlled and lasts for 4 weeks. Subjects received (1:1:1 ratio), 25 or 12.5 mg aprocitentan, or placebo. • Part 2: Single-blind and single-arm, lasts for 32 weeks. All subjects received aprocitentan 25 mg. • Part 3: Double-blind withdrawal. All subjects completing part 2 and entering part 3 are re-randomized (1:1 ratio) to either aprocitentan 25 mg or placebo.
Safety assessments include (treatment emergent) adverse events (TEAEs) including TEAEs leading to premature discontinuation of study treatment; adverse events of special interest (AESIs): hepatic disorders, anemia (or hemodilution), edema/fluid retention, and decompensation/aggravation of heart failure; treatment-emergent major adverse cardiovascular events (MACEs)/MACE-plus defined as cardiovascular death, non-fatal myocardial infarction (MI), or non-fatal stroke, or hear filure leading to hospitalization confirmed by the Central Adjudication Committee (CAC); as well as vital signs, body weight, clinical laboratory assessments, and 12-lead electrocardiograms.

[2] = in comparison to corresponding alkylated derivatives; cited from earlier work
[3] = test system: subjects having essential hypertension; conditions: cited from earlier work

Question: For `NS(=O)(=O)Nc1ncnc(OCCOc2ncc(Br)cn2)c1-c1ccc(Br)cc1` [aprocitentan, {5-(4-bromo-phenyl)-6-[2-(5-bromo-pyrimidin-2-yloxy)-ethoxy]-pyrimidin-4-yl}-sulfamide], which tolerability [1] is on record?
Answer: Its tolerability is “generally well tolerated”.

Question: And the tolerability ([1]; listed as Aprocitentan)?
Answer: Its tolerability is “generally well tolerated”.

Question: And the “treatment-emergent adverse events (TEAEs), patients” value ([1]; aprocitentan 12.5 mg)?
Answer: The value was 27.6%.

Question: What about the “edema/fluid retention, patients” value ([1]; aprocitentan 12.5 mg) of the same molecule?
Answer: Its value is 9.1%.

Question: And the “discontinuation from study treatment due to an adverse event” value ([1]; aprocitentan 12.5 mg)?
Answer: The value was 2.5%.

Question: What about the “estimated plasma volume increase” value ([1]; aprocitentan 12.5 mg, part 1) of the same molecule?
Answer: Its value is 10.5%.

Question: And the haemoglobin concentration change ([1]; aprocitentan 12.5 mg, part 1, placebo −0.4)?
Answer: Its haemoglobin concentration change is -8.0 g/L.

Question: And the “treatment-emergent adverse events (TEAEs), patients” value ([1]; aprocitentan 25 mg)?
Answer: Its value is 36.7%.

Question: And the “edema/fluid retention, patients” value ([1]; aprocitentan 25 mg)?
Answer: The value was 18.4%.

Question: What about the “oedema or fluid retention, patients” value ([1]; aprocitentan 25 mg, 12-week part 3, placebo 1.3%) of the same molecule?
Answer: Its value is 2.6%.

Question: And the “oedema or fluid retention, patients” value ([1]; aprocitentan 25 mg, 32-week part 2)?
Answer: The value was 18.2%.

Question: And the “discontinuation from study treatment due to an adverse event” value ([1]; aprocitentan 25 mg)?
Answer: Its value is 2.0%.

Question: What about the “admission to hospital for heart failure, patients” value (“admission to hospital” for short) ([1]; aprocitentan 25 mg, part 1 (two of 245)) of the same molecule?
Answer: The value was 0.8%.

Question: And the “patients who discontinued due to oedema or fluid retention” value (from here on “patients who discontinued due”) ([1]; aprocitentan 25 mg, part 1, of 245 patients)?
Answer: The value was “one”.

Question: And the “estimated plasma volume increase” value ([1]; aprocitentan 25 mg, part 1)?
Answer: The value was 11.2%.

Question: What about the “admission to hospital” value ([1]; aprocitentan 25 mg, part 2 (six of 704)) of the same molecule?
Answer: Its value is 0.9%.

Question: And the “patients who discontinued due” value ([1]; aprocitentan 25 mg, part 2, of 704 patients)?
Answer: Its value is “five”.

Question: What about the “admission to hospital” value ([1]; aprocitentan 25 mg, part 3 (two of 310), placebo 0.3%) of the same molecule?
Answer: Its value is 0.6%.

Question: What about the “patients who discontinued due” value ([1]; aprocitentan 25 mg, part 3, of 310 patients) of the same molecule?
Answer: Its value is “one”.

Question: What about the “patients who discontinued treatment due to edema/fluid retention” value ([1]; aprocitentan 25 mg, parts 1-3, <1%) of the same molecule?
Answer: Its value is “seven”.

Question: What about the bodyweight ([1]; both aprocitentan doses, part 1, decrease with placebo) of the same molecule?
Answer: Its bodyweight is “moderate increase”.

Question: What about the “serious edema/fluid retention adverse events” value ([1]; both on aprocitentan 25 mg, <1%) of the same molecule?
Answer: The value was “Two”.

Question: What about the “edema/fluid retention events mild to moderate in intensity” value ([1]; entire study duration) of the same molecule?
Answer: Its value is over 95%.

Question: And the “patients who developed edema/fluid retention at one time point” value ([1]; entire study duration)?
Answer: Its value is “Approximately 30%”.

Question: What about the hepatotoxicity ([1]; in vivo) of the same molecule?
Answer: The hepatotoxicity was “No signs”.

Question: What about the “NT-proBNP and MR-proANP” value ([1]; part 1, stabilisation in part 2, reversal in part 3) of the same molecule?
Answer: Its value is “Slight increases”.

Question: And the eGFR ([1]; part 1 versus placebo)?
Answer: Its eGFR is “decreased slightly”.

Question: And the “decrease of hemoglobin value from baseline to week 36” value ([1]; preliminary data, subjects with SGLT-2 inhibitor plus standardized antihypertensive background therapy, small sample size)?
Answer: Its value is “smaller decrease”.

Question: And the clearance in vivo [2]?
Answer: The clearance in vivo was “much shorter”.

Question: What about the half-life in vivo [2] of the same molecule?
Answer: Its half-life in vivo is “much longer”.

Question: What about the tolerability ([3]; across all four doses (5, 10, 25, 50 mg)) of the same molecule?
Answer: Its tolerability is “well tolerated”.

Question: What about the “cases of increased liver enzymes above three times the upper limit of the normal range” value ([3]; aprocitentan 5 mg group) of the same molecule?
Answer: Its value is “one”.

Question: And the “cases of peripheral edema” value ([3]; aprocitentan 25 mg group)?
Answer: The value was “two”.

Question: What about the “cases of peripheral edema” value ([3]; aprocitentan 50 mg group) of the same molecule?
Answer: Its value is “two”.

Question: What about the “mean body weight change from baseline” value ([3]; aprocitentan 5 and (10) mg groups) of the same molecule?
Answer: Its value is “remained unchanged”.

Question: And the “mean body weight increase from baseline” value ([3]; aprocitentan 25 and 50 mg groups)?
Answer: The value was 0.4 kg.

Reference: patent publication US20250345332A1, “APROCITENTAN FOR THE TREATMENT OF HYPERTENSION” (IDORSIA PHARMACEUTICALS LTD, priority 2022, published 2025)
